Test systems include DU-145 prostate; HS 578T breast; COLO 205 colon; SF-268 CNS; OVCAR-4 ovarian; BT-549 breast; NCI-H460 lung; MALME-3M melanoma; SK-MEL-5 melanoma; HOP-62 NSCLC.
Holding throughout (assay): DTP human tumour cell line panel, 48 h

Values joined by “and” are separate entries in the source; they are usually repeats but may differ in a detail not shown here. Equal entries are not always repeated.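 The compound was tested at five concentrations on cells cultured in 96-well plates, with a 48-hour exposure period. GI50: concentration for 50% inhibition of growth. Definition used: TGI = concentration required for complete inhibition of growth.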

Broadly, the GI50 is the concentration giving 50% growth inhibition. Usually TGI stands for the concentration at which net growth stops. The low end stands for greater sensitivity of the cells, the high end for lower sensitivity of the cells.

With `Cc1cc(C(=O)CC(Cl)=C(Cl)Cl)c(Cl)cc1Cl`, the GI50 in the assay with DU-145 prostate is 16 µM; in the assay with HS 578T breast it was 30.3 µM; in the assay on COLO 205 colon it was 27.7 µM; in the assay with SF-268 CNS, 20.9 µM; in the assay on OVCAR-4 ovarian, 27.6 µM; in the assay on BT-549 breast, 20.2 µM. The GI50 with NCI-H460 lung is 23.8 µM; in the assay on MALME-3M melanoma it was 14.3 µM; in the assay on SK-MEL-5 melanoma, 18 µM; with HOP-62 NSCLC, 21.2 µM. Also, the TGI in the assay on DU-145 prostate was 40.4 µM; in the assay on HS 578T breast, 78.4 µM; in the assay on COLO 205 colon, 86.1 µM; with SF-268 CNS, 55.8 µM; with OVCAR-4 ovarian, 72.3 µM; with BT-549 breast, 44.4 µM. Moreover, the TGI was found to be 90.6 µM with NCI-H460 lung, 34.5 µM in the assay with MALME-3M melanoma, 39.9 µM in the assay on SK-MEL-5 melanoma and 44.1 µM with HOP-62 NSCLC.
On to `COc1cc(C(=O)c2cnc(-c3ccc4cc[nH]c4c3)[nH]2)cc(OC)c1OC`, for which the GI50 with DU-145 prostate is 0.0363 µM; in the assay on HS 578T breast it was 0.0461 µM; in the assay on COLO 205 colon, 0.0277 µM; in the assay with SF-268 CNS, 0.0808 µM; in the assay on OVCAR-4 ovarian it was 0.993 µM; in the assay with BT-549 breast, 0.0631 µM. Also, the GI50 with NCI-H460 lung is 0.0376 µM; in the assay on MALME-3M melanoma, 1.61 µM; with SK-MEL-5 melanoma, 0.0385 µM; in the assay with HOP-62 NSCLC, 0.0354 µM. The concentration for total growth inhibition (TGI) in the assay with DU-145 prostate is 11.1 µM; in the assay on HS 578T breast it was greater than 86.9 µM; with COLO 205 colon, 0.105 µM; with SF-268 CNS it was 7.19 µM; with OVCAR-4 ovarian it was 20 µM; with BT-549 breast it was 3.12 µM. Also, the TGI came out at 11.5 µM in the assay with NCI-H460 lung, 9.89 µM with MALME-3M melanoma, 0.389 µM with SK-MEL-5 melanoma and 6.5 µM with HOP-62 NSCLC.
Consider `N#Cc1ccc(C(=O)c2cnn(-c3ccc(F)cc3)c2N)cc1`, for which the GI50 with DU-145 prostate, in the assay on HS 578T breast, with COLO 205 colon, in the assay on SF-268 CNS, in the assay on OVCAR-4 ovarian and with BT-549 breast was greater than 25 µM throughout. The GI50 in the assay on NCI-H460 lung, with MALME-3M melanoma, in the assay on SK-MEL-5 melanoma and with HOP-62 NSCLC was greater than 25 µM each time. For the same compound, the TGI in the assay on DU-145 prostate, in the assay with HS 578T breast, in the assay with COLO 205 colon, with SF-268 CNS, with OVCAR-4 ovarian and with BT-549 breast was greater than 25 µM throughout. The TGI with NCI-H460 lung, in the assay on MALME-3M melanoma, with SK-MEL-5 melanoma and in the assay on HOP-62 NSCLC was greater than 25 µM each time.
For `CCCCNP1(NCCCC)=NP(NCCCC)(NCCCC)=NP(NCCCC)(NCCCC)=NP(NCCCC)(NCCCC)=N1`, the GI50 in the assay with DU-145 prostate is 0.895 µM; in the assay on HS 578T breast, 1.43 µM; with COLO 205 colon it was 0.301 µM; in the assay on SF-268 CNS, 1.53 µM; in the assay on OVCAR-4 ovarian it was 0.18 µM; in the assay on BT-549 breast, 4.08 µM. The GI50 was 0.594 µM in the assay on NCI-H460 lung, 0.232 µM in the assay with MALME-3M melanoma, 0.541 µM in the assay with SK-MEL-5 melanoma and 1.85 µM in the assay on HOP-62 NSCLC. The TGI in the assay with DU-145 prostate is 15.2 µM; with HS 578T breast, 7.71 µM; in the assay on COLO 205 colon it was 0.848 µM; in the assay with SF-268 CNS, 21.2 µM; with OVCAR-4 ovarian, 18.1 µM; in the assay with BT-549 breast it was 15.3 µM. For the same compound, the TGI worked out at 4.25 µM in the assay on NCI-H460 lung, 2.6 µM in the assay with MALME-3M melanoma, 1.89 µM with SK-MEL-5 melanoma and 6.25 µM in the assay on HOP-62 NSCLC.
In the case of `O=C1/C=C/[C@@H](O)[C@@H]2C[C@@H](O)C[C@H]2/C=C/CCC[C@H](CCc2ccc(NC(=S)Nc3ccc4c(c3)C(=O)OC43c4ccc(O)cc4Oc4cc(O)ccc43)cc2)O1`, the GI50 is 2.81 µM in the assay with DU-145 prostate; 0.305 µM in the assay on HS 578T breast; 0.208 µM in the assay with COLO 205 colon; 0.405 µM in the assay on SF-268 CNS; 0.333 µM in the assay on OVCAR-4 ovarian; 0.451 µM with BT-549 breast. The GI50 with NCI-H460 lung is 2.62 µM; in the assay with MALME-3M melanoma, 2.26 µM; with SK-MEL-5 melanoma, 0.164 µM; in the assay with HOP-62 NSCLC, 0.518 µM. The TGI with DU-145 prostate was greater than 100 µM; in the assay on HS 578T breast, greater than 100 µM; in the assay with COLO 205 colon it was 0.384 µM; with SF-268 CNS it was greater than 100 µM; in the assay with BT-549 breast it was 73.7 µM; in the assay with NCI-H460 lung, greater than 100 µM. Moreover, the values for the TGI in the assay with MALME-3M melanoma, in the assay on SK-MEL-5 melanoma and in the assay with HOP-62 NSCLC were greater than 100 µM, 0.311 µM and greater than 100 µM, respectively.
For the compound `C#Cc1cccc(Nc2ncnc3ccc(-c4cnc(N)nc4)cc23)c1`, the GI50 in the assay with DU-145 prostate is 0.744 µM; in the assay with HS 578T breast, 1.23 µM; in the assay on COLO 205 colon it was 2.99 µM; in the assay on SF-268 CNS, 1.79 µM; with OVCAR-4 ovarian it was 2.59 µM; with BT-549 breast, 2.07 µM. Besides, the GI50 was 2.95 µM in the assay on NCI-H460 lung, 1.73 µM in the assay with MALME-3M melanoma, 3.34 µM in the assay on SK-MEL-5 melanoma and 1.98 µM in the assay with HOP-62 NSCLC. The TGI is 14.6 µM with DU-145 prostate; 4.06 µM in the assay with HS 578T breast; 13.8 µM in the assay on COLO 205 colon; 20.6 µM with SF-268 CNS; 14.8 µM in the assay on OVCAR-4 ovarian; 9.37 µM with BT-549 breast. Moreover, the TGI with NCI-H460 lung came to 14 µM; in the assay with MALME-3M melanoma, 12.7 µM; in the assay on SK-MEL-5 melanoma it was 12.5 µM; with HOP-62 NSCLC it was 12.4 µM.
In the case of `O=C(Nc1cccc(-n2ccc3c(NC(=O)c4ccccc4)nccc32)c1)c1ccc(Cl)c(Cl)c1`, the GI50 with DU-145 prostate was 0.22 µM; with HS 578T breast, 0.0822 µM; in the assay on COLO 205 colon it was 0.124 µM; with SF-268 CNS, 0.19 µM; in the assay with OVCAR-4 ovarian, 0.611 µM; in the assay on BT-549 breast, 0.214 µM. Further, the GI50 is 0.158 µM with NCI-H460 lung, 0.242 µM in the assay on MALME-3M melanoma, 0.0719 µM in the assay on SK-MEL-5 melanoma and 0.24 µM in the assay on HOP-62 NSCLC. For the same compound, the TGI with DU-145 prostate amounted to 0.855 µM; in the assay on HS 578T breast, 1.31 µM; in the assay on COLO 205 colon, 0.517 µM; in the assay on SF-268 CNS it was 2.18 µM; with OVCAR-4 ovarian, 2 µM; in the assay with BT-549 breast, 1.26 µM. Besides, the TGI in the assay on NCI-H460 lung came out at 1.08 µM; in the assay on MALME-3M melanoma it was 2.27 µM; in the assay on SK-MEL-5 melanoma it was 0.347 µM; in the assay with HOP-62 NSCLC, 1.87 µM.
With `CC[C@H](C)[C@H](NC(=O)[C@H]1CCCCN1C)C(=O)N(C)[C@H](C[C@@H](OC(C)=O)c1nc(C(=O)NC23C4C5C2C2C3C4C52C(=O)OC)cs1)C(C)C` (some centres undefined), the GI50 with DU-145 prostate was 0.00113 µM and 0.0025 µM; in the assay with HS 578T breast, 0.000754 µM and 0.0025 µM; in the assay with COLO 205 colon, 0.00303 µM and 0.0025 µM; in the assay on SF-268 CNS, 0.00279 µM and 0.0025 µM; with OVCAR-4 ovarian it was 0.0506 µM; with BT-549 breast it was 0.00344 µM and 0.0025 µM. In addition, the GI50 is 0.003 µM and 0.0025 µM with NCI-H460 lung; 0.00288 µM and 0.0025 µM in the assay on MALME-3M melanoma; 0.000838 µM and 0.0025 µM with SK-MEL-5 melanoma; 0.00265 µM and 0.0025 µM with HOP-62 NSCLC. Also, the TGI is 0.031 µM with DU-145 prostate; greater than 25 µM in the assay with HS 578T breast; 0.0715 µM and 0.0111 µM in the assay with COLO 205 colon; greater than 25 µM with SF-268 CNS; greater than 25 µM in the assay on OVCAR-4 ovarian; 0.0801 µM and 0.0268 µM with BT-549 breast. Also, the TGI in the assay with NCI-H460 lung was greater than 25 µM; in the assay on MALME-3M melanoma it was greater than 25 µM; in the assay on SK-MEL-5 melanoma it was 0.0241 µM and 0.0102 µM; in the assay with HOP-62 NSCLC, greater than 25 µM.
For `O=C(C(=O)c1cccnc1)c1cccnc1`, the GI50 in the assay with DU-145 prostate, with HS 578T breast, in the assay on COLO 205 colon, in the assay on SF-268 CNS, in the assay on OVCAR-4 ovarian and with BT-549 breast was greater than 100 µM each time. The GI50 with NCI-H460 lung, in the assay with MALME-3M melanoma, with SK-MEL-5 melanoma and in the assay on HOP-62 NSCLC was greater than 100 µM throughout. The total growth inhibition concentration (TGI) in the assay on DU-145 prostate, with HS 578T breast, in the assay with COLO 205 colon, with SF-268 CNS, in the assay on OVCAR-4 ovarian and with BT-549 breast was greater than 100 µM each time. The total growth inhibition concentration (TGI) in the assay on NCI-H460 lung, with MALME-3M melanoma, in the assay on SK-MEL-5 melanoma and in the assay on HOP-62 NSCLC was greater than 100 µM in each case.
With `O=c1[nH][nH]c(=O)c2c(O)c(-c3ccccc3)ncc12`, the GI50 in the assay on DU-145 prostate is 58.5 µM and 144 µM; with HS 578T breast it was 40.3 µM and 40.2 µM; in the assay on COLO 205 colon, 41.6 µM and 130 µM; in the assay on SF-268 CNS, 35 µM and 71.3 µM; in the assay with OVCAR-4 ovarian it was 46 µM and 110 µM; in the assay on BT-549 breast, 32.9 µM and 47.4 µM. The GI50 in the assay on NCI-H460 lung was 55.6 µM and 146 µM; in the assay on MALME-3M melanoma, 30.1 µM and 54.4 µM; in the assay on SK-MEL-5 melanoma it was 45.8 µM and 175 µM; in the assay on HOP-62 NSCLC, 27.9 µM and 86.9 µM. Moreover, the TGI in the assay with DU-145 prostate was greater than 1000 µM; with HS 578T breast it was 672 µM; with COLO 205 colon, 399 µM; with SF-268 CNS it was greater than 1000 µM; in the assay on OVCAR-4 ovarian it was 630 µM; with BT-549 breast, 357 µM. Also, the TGI was 634 µM in the assay with NCI-H460 lung; 278 µM with MALME-3M melanoma; 357 µM with SK-MEL-5 melanoma; 87.3 µM and 471 µM in the assay with HOP-62 NSCLC.

The record behind these values is PubChem BioAssay (NCI).
